Measurements taken from patent EP2022796A1, “Amorphous ciclesonide” (Nycomed GmbH, priority 2007, dated 2009).
Converted amounts (≈) assume the structure as drawn.

Assays:
Type in all cases: physicochemical
[1] = Dissolution experiments in water (dissolution kinetics); conditions: 37°C
Protocol: For each timepoint (5 min, 10 min, 20 min, 35 min, 60 min and 1440 min) of the dissolution experiment, three samples each of X-ray amorphous and crystalline ciclesonide were prepared by weighing a defined amount of in each case about 15 mg into a 250 ml conical wide-necked Erlenmeyer flask and stirring (850 rpm, glass coated magnetic stir bar, having a length of 2.4 cm and a diameter of 0.59 cm) the samples at 37°C in 100 ml water (Millipore quality, ELIX 3, Gradient A 10, pH 5.92 - 6.00). The moment of the addition of water was defined as to. The tempering of the samples was performed using an air bath. After the desired stirring time, the complete samples were filtered through a 0.2 µm membrane filter (Schleicher & Schuell, RC 0.2 µm Spartan 30/A) and concentrated on a Sep-Pak cartridge (Waters Sep-Pak cartridge C18, WAT051910). The cartridge was then eluted with ethanol (gradient grade, Merck). The ciclesonide in the ethanol solution was then quantified by HPLC (LaChrom®-HPLC System Series 7000, column: Zorbax SB phenyl, eluent: water/ethanol 38 % : 62 % (v/v) isocratic, column temperature: 60°C, injection volume: 50 µL, UV-detection at 243 nm) against an external standard.

[2] = Saturation solubility experiments in water; conditions: 37°C, 30 min ultrasonic treatment then stirred 24 hours; for saturation solubility: 1440 min
Protocol: Defined amounts of in each case about 14 to 25 mg of X-ray amorphous or crystalline ciclesonide were weighed into a conical Erlenmeyer flask equipped with a rubber stopper (n = 3). 100 ml of water (Millipore quality, ELIX 3, Gradient A 10, pH 5.92 - 6.00) were added and 30 minutes of ultrasonic treatment was applied to the samples. Afterwards the samples were stirred in the dark for 24 hours at 37°C in a water bath. After the desired stirring time, each sample was filtered through a 0.2 µm membrane filter (Schleicher & Schuell, RC 0.2 µm Spartan 30/A) and concentrated on a Sep-Pak cartridge (Waters Sep-Pak cartridge C18, WAT051910). Then the cartridge was eluted with ethanol (gradient grade, Merck). The ciclesonide in the ethanol solution was then quantified by HPLC (LaChrom®-HPLC System Series 7000, column: Zorbax SB phenyl, eluent: water/ethanol 38 % : 62 % (v/v) isocratic, column temperature: 60°C, injection volume: 50 µL, UV-detection at 243 nm) against an external standard.

[3] = Stability under elevated pressure (recrystallization); conditions: pressure of up to 2.500 for 5 min
From the text: Such a stability against pressure is particularly desirable when a pharmaceutical agent is used for preparation of solid pharmaceutical compositions such as tablets or granules.

Hygroscopicity = test: Hygroscopicity
[4] = listed as crystalline form of ciclesonide

Compound	concentration of dissolved ingredient within 5 minutes ([1]; 5 minutes)	concentration of dissolved ingredient after 20 minutes ([1]; 20 minutes)	concentration of dissolved ingredient relative to crystalline ciclesonide after 1 hour ([1]; after 1 hour, amorphous versus crystalline)	concentration of dissolved ciclesonide after 24 hours [1]	saturation solubility [2]	stability under pressure (signs of recrystallization) [3]	hygroscopicity (Hygroscopicity)	solubility at 1 h ([1]; after 1 hour)	concentration of dissolved ciclesonide after 24 hours [1, 4]	solubility at 24 h [2]	saturation solubility [2, 4]
CC(C)C(=O)OCC(=O)C12OC(C3CCCCC3)OC1CC1C3CCC4=CC(=O)C=CC4(C)C3C(O)CC12C (stereo not drawn) [amorphous ciclesonide, 16,17-[(Cyclohexyl-methylene)bis(oxy)]-11-hydroxy-21-(2-methyl-1-oxopropoxy)-pregna-1,4-diene-3,20-dione[11β,16α]]	290 ng/mL	340 ng/mL	about sevenfold higher	105 ng/mL	0.0916 ± 0.0052 µg/mL	did not show any signs of recrystallization	not hygroscopic				
CC(C)C(=O)OCC(=O)C12OC(C3CCCCC3)OC1CC1C3CCC4=CC(=O)C=CC4(C)C3C(O)CC12C (stereo not drawn) [crystalline ciclesonide, 16,17-[(Cyclohexyl-methylene)bis(oxy)]-11-hydroxy-21-(2-methyl-1-oxopropoxy)-pregna-1,4-diene-3,20-dione[11β,16α], reference compound]				64 ng/mL	0.0901 ± 0.0022 µg/mL			~0.05 µg/mL (≈ 0.0925 µM)	about 64 µg/l	0.091 µg/mL (≈ 0.168 µM)	about 91 µg/l
